25 molecules from US9796700B2 (Celgene CAR LLC, priority 2013, dated 2017) can be followed below.

The structures appear in SMILES notation. Where two headings read alike, the source gives them in different places.

The target in one assay is Erk1 (Homo sapiens (Human), UniProt P27361). The assay is described as follows: Protein Mass Modification Assay (intact protein MALDI). In kind it is binding. The method in brief:
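Percent covalent modification comes from the intact-protein MALDI centroid mass shift, treated versus control, divided by compound MW. Before analysis, human Erk1 was exposed to compound at 10-fold excess over protein for 60 min at room temperature.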

The target in another assay is MEK1 activated ERK1 (Homo sapiens (Human), UniProt P27361). The assay is described as follows: Omnia continuous-read kinase assay for potency against MEK1 activated ERK1. The format is biochemical. Summed up: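 Apparent IC50 came from initial reaction slopes (RFU vs time) plotted against log inhibitor with a variable-slope fit. Reactions were started with ERK1 (4 nM final) added to 50 μM ATP, roughly at its appKM, and 10 μM Sox-conjugated ST17 peptide in 20 mM Tris pH 7.5, 5 mM MgCl2. Fluorescence was monitored every 71 seconds.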

The mark [1] stands for this setting: MEK1 activated ERK1, WT, ATP at KM.
Setting [2] is: read-out: ERK1 Omnia WT ATP KM IC50.

Erk1, sequence (P27361 whole entry, looked up): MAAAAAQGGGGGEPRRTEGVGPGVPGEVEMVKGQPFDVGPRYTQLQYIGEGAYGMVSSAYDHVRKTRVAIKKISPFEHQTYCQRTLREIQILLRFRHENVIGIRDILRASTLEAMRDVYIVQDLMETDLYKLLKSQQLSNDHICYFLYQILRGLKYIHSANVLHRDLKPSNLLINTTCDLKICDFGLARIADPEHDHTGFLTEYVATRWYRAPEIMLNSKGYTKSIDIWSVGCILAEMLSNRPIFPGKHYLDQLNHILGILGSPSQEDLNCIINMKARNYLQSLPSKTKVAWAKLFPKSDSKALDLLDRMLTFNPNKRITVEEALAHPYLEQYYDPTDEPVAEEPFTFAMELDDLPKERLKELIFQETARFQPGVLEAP
MEK1 activated ERK1, sequence (P27361 whole entry): as the sequence (P27361 whole entry, looked up) above

For `C=CC(=O)N(C)c1ccccc1Nc1nc(Nc2cc(C(=O)NOC)ccc2C#N)ncc1Cl` [Compound I-197, 3-((5-chloro-4-((2-(N-methylacrylamido)phenyl)amino)pyrimidin-2-yl)amino)-4-cyano-N-methoxybenzamide], the “ERK1 Mass Mod (%)” value at Erk1 is on record as “E (provided a mass modification of ≧70%)”. For the same molecule, the IC50 at MEK1 activated ERK1 (setting [1]) is more than 1000 nM.

Turning to `C=CC(=O)N[C@@H]1CCCC[C@@H]1Nc1nc(Nc2cc(C(N)=O)ccc2C)ncc1Cl` [Compound I-199, 3-((4-(((1S,2R)-2-acrylamidocyclohexyl)amino)-5-chloropyrimidin-2-yl)amino)-4-methylbenzamide], the “ERK1 Mass Mod (%)” value on Erk1 is on record as “G (proived a mass modification ≦30%)”. The concentration for half-maximal inhibition (IC50) at MEK1 activated ERK1 (setting [1]) was more than 1000 nM.

Turning to `C=CC(=O)N[C@H]1CCCC[C@H]1Nc1nc(Nc2cc(C(N)=O)ccc2C)ncc1Cl` [Compound I-200, 3-((4-(((1R,2S)-2-acrylamidocyclohexyl)amino)-5-chloropyrimidin-2-yl)amino)-4-methylbenzamide], at Erk1, the “ERK1 Mass Mod (%)” value is “G (proived a mass modification ≦30%)”. Further, the IC50 on MEK1 activated ERK1 (setting [1]) is more than 1000 nM.

Turning to `C=CC(=O)N[C@H]1CCCC[C@@H]1Nc1nc(Nc2cc(C(N)=O)ccc2C)ncc1Cl` [Compound I-201, 3-((4-(((1S,2S)-2-acrylamidocyclohexyl)amino)-5-chloropyrimidin-2-yl)amino)-4-methylbenzamide], the “ERK1 Mass Mod (%)” value on Erk1 was “G (proived a mass modification ≦30%)”. Besides, the IC50 on MEK1 activated ERK1 (setting [1]) was more than 1000 nM.

Turning to `C=CC(=O)N(C)c1ccccc1Nc1nc(Nc2cc(C(=O)NOCCO)ccc2C#N)ncc1Cl` [Compound I-204, 3-((5-chloro-4-((2-(N-methylacrylamido)phenyl)amino)pyrimidin-2-yl)amino)-4-cyano-N-(2-hydroxyethoxy)benzamide], on Erk1, the “ERK1 Mass Mod (%)” value is reported as “F (provided a mass modification of 31-69%)”. Besides, the half-maximal inhibitory concentration (IC50) on MEK1 activated ERK1 (setting [1]) was more than 1000 nM.

Regarding `C=CC(=O)Nc1cc(F)ccc1Nc1nc(Nc2cc(C(N)=O)ccc2OC)ncc1Cl` [Compound I-208, 3-((4-((2-acrylamido-4-fluorophenyl)amino)-5-chloropyrimidin-2-yl)amino)-4-methoxybenzamide], the “ERK1 Mass Mod (%)” value on Erk1 is recorded as “E (provided a mass modification of ≧70%)”. Besides, the IC50 on MEK1 activated ERK1 (setting [1]) was less than 100 nM.

For the molecule `C=CC(=O)N[C@H]1CCC[C@@H]1Nc1nc(Nc2cc(C(N)=O)ccc2C)ncc1Cl` [Compound I-215, 3-((4-(((1 S,2S)-2-acrylamidocyclopentyl)amino)-5-chloropyrimidin-2-yl)amino)-4-methylbenzamide], at Erk1, the “ERK1 Mass Mod (%)” value is “G (proived a mass modification ≦30%)”. The IC50 on MEK1 activated ERK1 (setting [1]) is more than 1000 nM.

As to `CC(C)=CC(=O)c1ccccc1Nc1nc(Nc2cc(C(N)=O)ccc2C)ncc1Cl` [Compound I-216, 3-((5-chloro-4-((2-(3-methylbut-2-enoyl)phenyl)amino)pyrimidin-2-yl)amino)-4-methylbenzamide], at Erk1, the “ERK1 Mass Mod (%)” value is “G (proived a mass modification ≦30%)”. In addition, at MEK1 activated ERK1 (setting [1]), the IC50 is more than 1000 nM.

With `C=C(C)C(=O)Nc1ccccc1Nc1nc(Nc2cc(C(N)=O)ccc2C)ncc1Cl` [Compound I-217, 3-((5-chloro-4-((2-methacrylamidophenyl)amino)pyrimidin-2-yl)amino)-4-methylbenzamide], on Erk1, the “ERK1 Mass Mod (%)” value is on record as “G (proived a mass modification ≦30%)”. Also, the IC50 at MEK1 activated ERK1 (setting [1]) was more than 1000 nM.

Consider `Cc1ccc(C(N)=O)cc1Nc1ncc(Cl)c(Nc2ccccc2NC(=O)/C=C/CN(C)C)n1` [Compound I-218, (E)-3-((5-chloro-4-((2-(4-(dimethylamino)but-2-enamido)phenyl)amino)pyrimidin-2-yl)amino)-4-methylbenzamide], for which the “ERK1 Mass Mod (%)” value at Erk1 is reported as “G (proived a mass modification ≦30%)”. In addition, on MEK1 activated ERK1 (setting [1]), the IC50 is more than 1000 nM.

Consider `C/C=C/C(=O)Nc1ccccc1Nc1nc(Nc2cc(C(N)=O)ccc2C)ncc1Cl` [Compound I-219, (E)-3-((4-((2-(but-2-enamido)phenyl)amino)-5-chloropyrimidin-2-yl)amino)-4-methylbenzamide], for which, at Erk1, the “ERK1 Mass Mod (%)” value is “G (proived a mass modification ≦30%)”. Moreover, the IC50 on MEK1 activated ERK1 (setting [1]) was more than 1000 nM.

As for `C=CC(=O)Nc1cc(F)ccc1Nc1nc(Nc2ccc(F)cc2C#N)ncc1Cl` [Compound I-221, N-(2-((5-chloro-2-((2-cyano-4-fluorophenyl)amino)pyrimidin-4-yl)amino)-5-fluorophenyl)acrylamide], the “ERK1 Mass Mod (%)” value on Erk1 is on record as “E (provided a mass modification of ≧70%)”. The IC50 on MEK1 activated ERK1 (setting [1]) was less than 100 nM.

As to `CC(C)=CC(=O)c1ccccc1Oc1nc(Nc2ccc(F)cc2C)ncc1Cl` [Compound I-222, 1-(2-((5-chloro-2-((4-fluoro-2-methylphenyl)amino)pyrimidin-4-yl)oxy)phenyl)-3-methylbut-2-en-1-one], the “ERK1 Mass Mod (%)” value at Erk1 is given as “G (proived a mass modification ≦30%)”. Further, the half-maximal inhibitory concentration (IC50) at MEK1 activated ERK1 (setting [1]) was more than 1000 nM.

As for `CC(C)=CC(=O)c1ccccc1Oc1nc(Nc2cc(C(N)=O)ccc2C)ncc1Cl` [Compound I-223, 3-((5-chloro-4-(2-(3-methylbut-2-enoyl)phenoxy)pyrimidin-2-yl)amino)-4-methylbenzamide], on Erk1, the “ERK1 Mass Mod (%)” value was “E (provided a mass modification of ≧70%)”. Besides, the IC50 at MEK1 activated ERK1 (setting [1]) is more than 1000 nM.

As to `C#CCOc1cc(C)c(Nc2ncc(Cl)c(Nc3ccccc3NC(=O)C=C)n2)cc1C(N)=O` [Compound I-228, 5-((4-((2-acrylamidophenyl)amino)-5-chloropyrimidin-2-yl)amino)-4-methyl-2-(prop-2-yn-1-yloxy)benzamide], on Erk1, the “ERK1 Mass Mod (%)” value is recorded as “G (proived a mass modification ≦30%)”. Also, the IC50 on MEK1 activated ERK1 (setting [1]) was less than 100 nM.

Take `C=CC(=O)Nc1cc(OC)ccc1Nc1nc(Nc2cc(C(N)=O)ccc2C)ncc1Cl` [Compound I-237, 3-((4-((2-acrylamido-4-methoxyphenyl)amino)-5-chloropyrimidin-2-yl)amino)-4-methylbenzamide]: on Erk1, the “ERK1 Mass Mod (%)” value is recorded as “E (provided a mass modification of ≧70%)”. Besides, at MEK1 activated ERK1 (setting [1]), the IC50 was less than 100 nM.

In the case of `C=C(C)S(=O)(=O)Nc1cc(F)ccc1Nc1nc(Nc2cc(C(C)=O)ccc2C)ncc1Cl` [Compound I-243, N-(2-((2-((5-acetyl-2-methylphenyl)amino)-5-chloropyrimidin-4-yl)amino)-5-fluorophenyl)prop-1-ene-2-sulfonamide], the “ERK1 Mass Mod (%)” value on Erk1 was “G (key: E: provided a mass modification of ≧70%; F: provided a mass modification of 31-69%; G: proived a mass modification ≦30%)”. On MEK1 activated ERK1 (setting [2]), the IC50 was less than 100 nM.

As for `C=CC(=O)Nc1cc(C)ccc1Nc1nc(Nc2cc(Cl)nc(OC)c2)ncc1Cl` [Compound I-244, N-(2-((5-chloro-2-((2-chloro-6-methoxypyridin-4-yl)amino)pyrimidin-4-yl)amino)-5-methylphenyl)acrylamide], the “ERK1 Mass Mod (%)” value at Erk1 is on record as “E (provided a mass modification of ≧70%)”. For the same molecule, on MEK1 activated ERK1 (setting [1]), the IC50 was more than 1000 nM.

Regarding `C=CC(=O)Nc1cc(Cl)ccc1Nc1nc(Nc2cc(Cl)nc(OC)c2)ncc1Cl` [Compound I-247, N-(5-chloro-2-((5-chloro-2-((2-chloro-6-methoxypyridin-4-yl)amino)pyrimidin-4-yl)amino)phenyl)acrylamide], at Erk1, the “ERK1 Mass Mod (%)” value is “F (provided a mass modification of 31-69%)”. In addition, the IC50 on MEK1 activated ERK1 (setting [1]) was more than 1000 nM.

In the case of `C=CC(=O)Nc1ccccc1Oc1nc(Nc2ccc(N3CCN(C(C)=O)CC3)cc2OC)ncc1C(N)=O` [Compound I-258, 2-((4-(4-acetylpiperazin-1-yl)-2-methoxyphenyl)amino)-4-(2-acrylamidophenoxy)pyrimidine-5-carboxamide], the “ERK1 Mass Mod (%)” value at Erk1 was “E (provided a mass modification of ≧70%)”. The IC50 at MEK1 activated ERK1 (setting [1]) is less than 100 nM.

Turning to `C=CC(=O)Nc1ccccc1Oc1nc(Nc2ccc(N3CCN(C(C)=O)CC3)cc2OC)ncc1Cl` [Compound I-259, N-(2-((2-((4-(4-acetylpiperazin-1-yl)-2-methoxyphenyl)amino)-5-chloropyrimidin-4-yl)oxy)phenyl)acrylamide], at Erk1, the “ERK1 Mass Mod (%)” value is listed as “F (provided a mass modification of 31-69%)”. Moreover, the IC50 at MEK1 activated ERK1 (setting [1]) was more than 1000 nM.

On to `C=CC(=O)Nc1ccccc1Oc1nc(Nc2ccc(N3CCN(C(C)=O)CC3)cc2OC)ncc1F` [Compound I-260, N-(2-((2-((4-(4-acetylpiperazin-1-yl)-2-methoxyphenyl)amino)-5-fluoropyrimidin-4-yl)oxy)phenyl)acrylamide], for which, on Erk1, the “ERK1 Mass Mod (%)” value is on record as “G (proived a mass modification ≦30%)”. For the same molecule, the IC50 at MEK1 activated ERK1 (setting [1]) was more than 1000 nM.

With `C=CC(=O)Nc1ccccc1Oc1ccnc(Nc2ccc(N3CCN(C(C)=O)CC3)cc2OC)n1` [Compound I-261, N-(2-((2-((4-(4-acetylpiperazin-1-yl)-2-methoxyphenyl)amino)pyrimidin-4-yl)oxy)phenyl)acrylamide], the “ERK1 Mass Mod (%)” value on Erk1 is on record as “G (proived a mass modification ≦30%)”. For the same molecule, the IC50 at MEK1 activated ERK1 (setting [1]) is more than 1000 nM.

As for `C=CC(=O)Nc1cc(OC)ccc1Oc1nc(Nc2ccc(N3CCC[C@@H]3C(N)=O)cc2OC)ncc1C(N)=O` [Compound I-262, (R)-4-(2-acrylamido-4-methoxyphenoxy)-2-((4-(2-carbamoylpyrrolidin-1-yl)-2-methoxyphenyl)amino)pyrimidine-5-carboxamide], on Erk1, the “ERK1 Mass Mod (%)” value was “F (provided a mass modification of 31-69%)”. At MEK1 activated ERK1 (setting [1]), the IC50 was more than 1000 nM.

In the case of `C=CC(=O)Nc1cc(OC)ccc1Oc1nc(Nc2ccc(N3CCC[C@@H]3CO)cc2OC)ncc1C(N)=O` [Compound I-264, (R)-4-(2-acrylamido-4-methoxyphenoxy)-2-((4-(2-(hydroxymethyl)pyrrolidin-1-yl)-2-methoxyphenyl)amino)pyrimidine-5-carboxamide], the “ERK1 Mass Mod (%)” value on Erk1 was “F (key: E: provided a mass modification of ≧70%; F: provided a mass modification of 31-69%; G: proived a mass modification ≦30%)”. Further, the IC50 at MEK1 activated ERK1 (setting [2]) was 501 to 999 nM.

Usually IC50 stands for the point on the concentration scale where inhibition reaches its midpoint.
